In brackets after ≈: the same amount, converted by molar mass.

In the first assay the target is mushroom tyrosinase. Nature of the assay: Tyrosinase inhibitory activity (spectrophotometric, DOPA substrate). Particulars: pH 6.8, 37 °C, 15 min, positive control = kojic acid. Format: biochemical. The protocol:
The reaction mixture was vortexed and maintained at 37 °C for 15 min, and then the absorption maximum of dopachrome (set at 479 nm) was measured using a microplate reader (Molecular Devices, Sunnyvale, California, USA). The tests were performed in triplicate, and the value of tyrosinase inhibition activity was calculated as described above.
Regarding Kaempferol-3-O-Rutinoside, the Tyrosinase inhibition IC50 is 0.908 ± 0.021 µg/mL.
Compound `O=c1cc(-c2ccc(O)c(O)c2)oc2cc(O)cc(O)c12` [Luteolin] came in with a Tyrosinase inhibition IC50 of 0.613 ± 0.016 µg/mL.

The assay is the same for the next values; noted with them: pH 6.8, 37 °C, 15 min, positive control = kojic acid, listed as kaempferol-3-O-rutinosid.
Consider Kaempferol-3-O-Rutinoside, for which the “Tyrosinase inhibition IC50” value is under 1 µg/mL.

System in another assay: not listed separately
Nature of the assay: DPPH radical scavenging activity. The following applies: 30 min in the dark, 517 nm; positive control = ascorbic acid. The method, then: The antioxidant activity of RFCS and the standards were evaluated by DPPH radical scavenging activity using a slightly modified version of a previously reported method. […] Aliquots (100 μL) of the supernatants were transferred into a 96-well microplate, and the absorbance of each was recorded at 517 nm using a Spectramax Plus384 UV-Vis spectrophotometer (Molecular Devices, Sunnyvale, California, USA). […] The IC50 values, which represent the concentrations of rose samples and standard substance at which 50% of the DPPH radical was inhibited, were determined. The tests were performed in triplicate, and the percentage of DPPH scavenging was calculated using the following equation. Inhibition%=H0-H/H0×100 H:Absorbance of RFCS and the standards;H0:Absorbance of the blank
(In general: Loss of DPPH colour is used to gauge radical scavenging.)
Take Kaempferol-3-O-Rutinoside: the “DPPH radical scavenging activity IC50” value is recorded as 0.808 ± 0.024 c μg/mL.
As for `O=c1cc(-c2ccc(O)c(O)c2)oc2cc(O)cc(O)c12` [Luteolin], the “DPPH radical scavenging activity IC50” value is on record as 0.507 ± 0.015 c μg/mL.

A further assay has as its system candida albicans (ATCC 10231). In words: MIC and MFC, broth microdilution. The class given is cell-based. The following applies: C. albicans. The protocol: (§1) The antimicrobial activity was measured by the method described by Xue. All standard strains were obtained from the Guangdong Microbiology Culture Center (Guangzhou, China). Listeria ivanovii (ATCC 19119) was cultured in BHI, Salmonella enteritidis enteritidis (ATCC 14028) Staphylococcus aureus (ATCC 25923) and Escherichia coli (ATCC 25922) were cultured in nutrient agar (NA) for 24 h and at 37 °C. candida albicans (ATCC 10231) was cultured in PHB at 37 °C for 24 h. Propionibacterium acnes (ATCC 6919) and Fusobacterium nucleatum (ATCC 10953) were cultured in CDC agar at 37 °C for 48 h in a YQX-II anaerobic incubator (Shanghai, China). The final cell counts in l mL of broth were approximately 10^6 colony-forming units (CFU/mL). A 10 mg/mL solution of miconazole nitrate and hydrochloride tetracycline in water was used as a positive control against fungi and bacteria, respectly.
(§2) The MIC and MBC or MFC values were determined as described previously by Xue. Briefly, 100 μL dilutions (approximately 100,000 CFU/mL) of Staphylococcus aureus, Escherichia coli, Salmonella enteritidis enteritidis, Fusobacterium nucleatum, and Candida albicans in nutrient broth and Listeria ivanovii and Propionibacterium acnes in GMA broth were inoculated into microtiter plates. Then, 100 μL aliquots of the solutions of the test compound were added after a two-fold serial dilution with nutrient broth (from 2 mg/mL to 3 μg/mL). Broths with 5% (v/v) DMSO were used as controls. The petri dishes were incubated at 37 °C for 24 h with the exception of Propionibacterium acnes and Fusobacterium nucleatum, which were incubated at 37 °C for 48 h. The MIC was recorded as the lowest concentration of sample showing no detectable growth. To determine the MBC or MFC values for no bacterial or fungus growth, 10 μL of sub-inhibitory concentrations of the test compounds were incubated on CDC or GMA agar plates for 24 or 48 h. Every determination was carried out in triplicate.
Kaempferol-3-O-Rutinoside: the minimal fungicidal concentration (MFC) (as a rule, the lowest tested concentration that kills the fungus rather than only halting it) was 1000 µg/mL.

Still in this assay, the particulars now being: C. albicans, 37 °C, 24 h.
Consider Kaempferol-3-O-Rutinoside, for which the MIC (commonly the least concentration at which growth counts as inhibited) amounted to 250 µg/mL.

The same assay, now with this note: Candida albicans, ATCC10231; C. albicans, 37 °C, 24 h; read-out: MIC.
Consider `Clc1ccc(COC(Cn2ccnc2)c2ccc(Cl)cc2Cl)c(Cl)c1` (centres unmarked) [Miconazole Nitrate], for which the MIC was 8 µg/mL.

The assay is the same for the next values; noted with them: Candida albicans, ATCC10231; C. albicans; read-out: MFC.
On to `O=c1cc(-c2ccc(O)c(O)c2)oc2cc(O)cc(O)c12` [Luteolin], for which the MFC came to 500 µg/mL (≈ 1750 µM).

System in another assay: not listed separately
In words: ABTS radical scavenging. Particulars: 30 °C, 30 min; positive control = Trolox. The protocol: The ABTS assay of RFCS was performed according to a modified version of a previously reported method. Briefly, the stock solutions were generated by mixing equal quantities of 7.4 mM ABTS^●+ solution and 2.6 mM potassium persulfate solution, and the mixture was incubated at room temperature for 12 h in the dark. Then, the solution was equilibrated with 1 mL of ABTS^●+ solution with 50% ethanol serving as a positive control. The absorbance of the solution at 734 nm was 1.17 ± 0.02 units. […] The mixture was mixed vigorously and incubated at 30 °C for 30 min. The absorbance was then measured at […] using the spectrophotometer. […] Inhibition%=Absorbance of blank-Absorbance of sample/Absorbance of blank×100
Turning to Kaempferol-3-O-Rutinoside, the “ABTS radical scavenging activity IC50” value is given as 0.719 ± 0.016 c μg/mL.
For `O=c1cc(-c2ccc(O)c(O)c2)oc2cc(O)cc(O)c12` [Luteolin], the “ABTS radical scavenging activity IC50” value amounted to 0.436 ± 0.026 c μg/mL.

Another assay concerns Propionibacterium acnes (ATCC 6919). In words: MIC and MBC, broth microdilution. The class given is cell-based. The following applies: Cutibacterium acnes, ATCC6919; P. acnes; read-out: MBC. The protocol: as §1, §2
For orientation: In broth dilution the organism is exposed to a series of concentrations in liquid medium.
Regarding `O=c1cc(-c2ccc(O)c(O)c2)oc2cc(O)cc(O)c12` [Luteolin], the MBC (commonly the smallest concentration meeting the test's criterion for killing) stood at 500 µg/mL (≈ 1750 µM).

The same assay, now with this note: P. acnes.
On to Kaempferol-3-O-Rutinoside, for which the MBC amounted to 1000 µg/mL.

The same assay, now with this note: P. acnes, anaerobic, 37 °C, 48 h.
Take `CN(C)[C@@H]1C(=O)C(C(N)=O)=C(O)[C@@]2(O)C(=O)C3=C(O)c4c(O)cccc4[C@@](C)(O)[C@H]3C[C@@H]12.Cl` [Hydrochloride tetracycline]: the MIC was found to be 8 µg/mL.
The compound Kaempferol-3-O-Rutinoside returned an MIC of 500 µg/mL.

In a further assay the test system is Staphylococcus aureus (ATCC 25923). Nature of the assay: MIC and MBC, broth microdilution. Format: cell-based. The following applies: S. aureus. The protocol: as §1, §2
With Kaempferol-3-O-Rutinoside, the MBC came out at 1000 µg/mL.

The same assay, now with this note: S. aureus, 37 °C, 24 h.
As for Kaempferol-3-O-Rutinoside, the MIC was 250 µg/mL.

Still in this assay, the particulars now being: Staphylococcus aureus, ATCC25923; S. aureus, 37 °C, 24 h; read-out: MIC.
In the case of `O=c1cc(-c2ccc(O)c(O)c2)oc2cc(O)cc(O)c12` [Luteolin], the MIC was 500 µg/mL (≈ 1750 µM).

The assay is the same for the next values; noted with them: Staphylococcus aureus, ATCC25923; S. aureus; read-out: MBC.
As to `O=c1cc(-c2ccc(O)c(O)c2)oc2cc(O)cc(O)c12` [Luteolin], the minimal bactericidal concentration (MBC) is over 1000 µg/mL.

Another assay concerns Escherichia coli (ATCC 25922). Nature of the assay: MIC and MBC, broth microdilution. Particulars: E. coli. The class given is cell-based. The protocol:
as §1, §2
The compound Kaempferol-3-O-Rutinoside had an MBC of over 1000 µg/mL.

Staying with this assay, now noted: E. coli, 37 °C, 24 h.
Kaempferol-3-O-Rutinoside returned an MIC of 500 µg/mL.

The assay is the same for the next values; noted with them: Escherichia coli, ATCC25922; E. coli; read-out: MBC.
Take `O=c1cc(-c2ccc(O)c(O)c2)oc2cc(O)cc(O)c12` [Luteolin]: the minimal bactericidal concentration (MBC) turned out to be 1000 µg/mL (≈ 3490 µM).
For `Clc1ccc(COC(Cn2ccnc2)c2ccc(Cl)cc2Cl)c(Cl)c1` (centres unmarked) [Miconazole Nitrate], the minimum bactericidal concentration (MBC) was determined as 16 µg/mL.

The test system of a further assay is Salmonella enteritidis enteritidis (ATCC 14028). Nature of the assay: MIC and MBC, broth microdilution. The class given is cell-based. The following applies: S. enteritidis enteritidis. The method, then:
as §1, §2
As for Kaempferol-3-O-Rutinoside, the MBC was over 1000 µg/mL.

Staying with this assay, now noted: S. enteritidis enteritidis, 37 °C, 24 h.
As for `CN(C)[C@@H]1C(=O)C(C(N)=O)=C(O)[C@@]2(O)C(=O)C3=C(O)c4c(O)cccc4[C@@](C)(O)[C@H]3C[C@@H]12.Cl` [Hydrochloride tetracycline], the MIC is 8 µg/mL.
The compound Kaempferol-3-O-Rutinoside registered an MIC of 500 µg/mL.

The next assay deals with Fusobacterium nucleatum (ATCC 10953). Nature of the assay: MIC and MBC, broth microdilution. Format: cell-based. Particulars: F. nucleatum. The method, then: as §1, §2
On to `CN(C)[C@@H]1C(=O)C(C(N)=O)=C(O)[C@@]2(O)C(=O)C3=C(O)c4c(O)cccc4[C@@](C)(O)[C@H]3C[C@@H]12.Cl` [Hydrochloride tetracycline], for which the minimal bactericidal concentration (MBC) stood at 2 µg/mL.
For Kaempferol-3-O-Rutinoside, the MBC was over 1000 µg/mL.

The assay is the same for the next values; noted with them: F. nucleatum, anaerobic, 37 °C, 48 h.
Compound `CN(C)[C@@H]1C(=O)C(C(N)=O)=C(O)[C@@]2(O)C(=O)C3=C(O)c4c(O)cccc4[C@@](C)(O)[C@H]3C[C@@H]12.Cl` [Hydrochloride tetracycline] came in with an MIC of 2 µg/mL.
As for Kaempferol-3-O-Rutinoside, the MIC came out at 500 µg/mL.

The same assay, now with this note: Fusobacterium nucleatum, ATCC10953; F. nucleatum, anaerobic, 37 °C, 48 h; read-out: MIC.
Regarding `O=c1cc(-c2ccc(O)c(O)c2)oc2cc(O)cc(O)c12` [Luteolin], the MIC worked out at 125 µg/mL (≈ 437 µM).

Still in this assay, the particulars now being: Fusobacterium nucleatum, ATCC10953; F. nucleatum; read-out: MBC.
On to `O=c1cc(-c2ccc(O)c(O)c2)oc2cc(O)cc(O)c12` [Luteolin], for which the MBC was determined as 500 µg/mL (≈ 1750 µM).

Another assay relates to Listeria ivanovii (ATCC 19119). In words: MIC and MBC, broth microdilution. Format: cell-based. Particulars: L. ivanovii. The protocol: as §1, §2
Compound `CN(C)[C@@H]1C(=O)C(C(N)=O)=C(O)[C@@]2(O)C(=O)C3=C(O)c4c(O)cccc4[C@@](C)(O)[C@H]3C[C@@H]12.Cl` [Hydrochloride tetracycline] yielded an MBC of under 0.1 µg/mL.
Same read-out and setting: as for Kaempferol-3-O-Rutinoside, the figure is 1000 µg/mL.

Still in this assay, the particulars now being: L. ivanovii, 37 °C, 24 h.
In turn, `CN(C)[C@@H]1C(=O)C(C(N)=O)=C(O)[C@@]2(O)C(=O)C3=C(O)c4c(O)cccc4[C@@](C)(O)[C@H]3C[C@@H]12.Cl` [Hydrochloride tetracycline] showed an MIC of under 0.1 µg/mL.
Consider Kaempferol-3-O-Rutinoside, for which the MIC stood at 500 µg/mL.

The same assay, now with this note: Listeria ivanovii, ATCC19119; L. ivanovii, 37 °C, 24 h; read-out: MIC.
Regarding `O=c1cc(-c2ccc(O)c(O)c2)oc2cc(O)cc(O)c12` [Luteolin], the MIC came to 500 µg/mL (≈ 1750 µM).

Still in this assay, the particulars now being: Listeria ivanovii, ATCC19119; L. ivanovii; read-out: MBC.
For `O=c1cc(-c2ccc(O)c(O)c2)oc2cc(O)cc(O)c12` [Luteolin], the MBC was 1000 µg/mL (≈ 3490 µM).

The values are drawn from publication PMC6247689, “Determination of the volatile and polyphenol constituents and the antimicrobial, antioxidant, and tyrosinase inhibitory activities of the bioactive compounds from the by-product of Rosa rugosa Thunb. var. plena Regal tea” (BMC Complementary and Alternative Medicine, 2018).
